Results from patent publication US20240101528A1, “SUBSTITUTED PYRAZOLO PIPERIDINE CARBOXYLIC ACIDS” (BAYER AKTIENGESELLSCHAFT, priority 2020, published 2024).
pEC50: −log10 of the molar value. Counter-ions that a name gives are not always drawn.

Target: T1, recombinant guanylate cyclase reporter cell line (Rattus norvegicus, UniProt P20595)
T1 construct: expressed in transfected cells
T1 sequence (P20595 1-619): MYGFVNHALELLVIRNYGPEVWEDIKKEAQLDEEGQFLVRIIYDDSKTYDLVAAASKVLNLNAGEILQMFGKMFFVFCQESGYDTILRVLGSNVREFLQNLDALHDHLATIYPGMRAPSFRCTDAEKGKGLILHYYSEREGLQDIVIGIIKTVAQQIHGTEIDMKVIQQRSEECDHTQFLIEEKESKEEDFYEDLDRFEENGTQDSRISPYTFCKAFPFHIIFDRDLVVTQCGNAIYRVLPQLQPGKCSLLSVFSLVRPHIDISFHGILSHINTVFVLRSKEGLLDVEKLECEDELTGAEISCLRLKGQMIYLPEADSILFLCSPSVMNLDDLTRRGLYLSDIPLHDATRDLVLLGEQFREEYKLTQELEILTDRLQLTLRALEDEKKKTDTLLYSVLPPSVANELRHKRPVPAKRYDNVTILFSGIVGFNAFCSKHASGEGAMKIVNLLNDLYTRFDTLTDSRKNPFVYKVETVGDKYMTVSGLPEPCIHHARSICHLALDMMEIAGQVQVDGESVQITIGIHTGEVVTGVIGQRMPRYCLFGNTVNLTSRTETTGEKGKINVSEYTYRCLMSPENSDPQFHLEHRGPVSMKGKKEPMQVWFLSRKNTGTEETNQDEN
T1 sequence (P19686 1-690 partner): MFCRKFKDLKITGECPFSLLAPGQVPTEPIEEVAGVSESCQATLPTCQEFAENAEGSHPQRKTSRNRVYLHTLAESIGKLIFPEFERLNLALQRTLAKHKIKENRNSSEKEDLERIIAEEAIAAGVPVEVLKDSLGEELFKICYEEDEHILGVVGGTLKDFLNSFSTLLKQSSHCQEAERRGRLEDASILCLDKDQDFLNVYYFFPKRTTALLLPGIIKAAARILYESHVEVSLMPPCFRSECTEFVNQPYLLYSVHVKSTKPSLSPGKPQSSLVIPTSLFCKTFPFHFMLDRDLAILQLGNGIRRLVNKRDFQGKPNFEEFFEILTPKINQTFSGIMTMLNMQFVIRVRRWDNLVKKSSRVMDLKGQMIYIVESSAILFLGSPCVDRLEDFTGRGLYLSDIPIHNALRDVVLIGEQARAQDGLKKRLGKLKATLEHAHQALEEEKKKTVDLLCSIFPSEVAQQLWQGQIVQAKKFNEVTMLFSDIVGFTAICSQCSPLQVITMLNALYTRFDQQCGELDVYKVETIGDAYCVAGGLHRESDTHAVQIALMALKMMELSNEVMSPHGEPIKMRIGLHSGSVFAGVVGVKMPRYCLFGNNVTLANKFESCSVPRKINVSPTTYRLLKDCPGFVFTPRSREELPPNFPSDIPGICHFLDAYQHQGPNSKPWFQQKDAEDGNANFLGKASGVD
Test: Effect on a recombinant guanylate cyclase reporter cell line
Assay type: cell-based
Settings: for pEC50: half maximal effective concentration; for MEC: minimum effective concentration
Protocol: B-1. Effect on a Recombinant Guanylate Cyclase Reporter Cell Line
The cellular activity of the compounds according to the invention was determined using a recombinant guanylate cyclase reporter cell line, as described in F. Wunder et al., Anal. Biochem. 339, 104-112 (2005).

SMILES	pEC50	MEC [nM]
O=C(O)c1cnn(C2CCCN(c3cc(Cl)ccc3-c3ccc(C4CCN(C(=O)C5CC5)CC4)cc3)C2)c1C(F)F (single isomer, unassigned; enantiomer 2) [Example 57, 1-(1-{4-Chloro-4′-[1-(cyclopropylcarbonyl)piperidin-4-yl][biphenyl]-2-yl}piperidin-3-yl)-5-(difluoromethyl)-1H-pyrazole-4-carboxylic acid hydrochloride (Enantiomer 2)]	> 9.00	0.3
CCCN1CCN(c2ccc(-c3ccc(Cl)cc3N3CCCC(n4ncc(C(=O)O)c4C(F)F)C3)cn2)CC1 (single isomer, unassigned; enantiomer 2) [Example 61, 1-(1-{5-Chloro-2-[6-(4-propylpiperazin-1-yl)pyridin-3-yl]phenyl}piperidin-3-yl)-5-(difluoromethyl)-1H-pyrazole-4-carboxylic acid hydrochloride (Enantiomer 2)]	7.55	10.0
Cc1cc(N2CCN(CC(F)(F)F)CC2)ncc1-c1ccc(Cl)cc1N1CCCC(n2ncc(C(=O)O)c2C(F)F)C1 (single isomer, unassigned; enantiomer 2) [Example 69, 1-[1-(5-Chloro-2-{4-methyl-6-[4-(2,2,2-trifluoroethyl)piperazin-1-yl]pyridin-3-yl}phenyl)piperidin-3-yl]-5-(difluoromethyl)-1H-pyrazole-4-carboxylic acid hydrochloride (Enantiomer 2)]	7.34	30.0
O=C(O)c1cnn(C2CCCN(c3cc(Cl)ccc3-c3ccc(C4CN(CC(F)(F)F)C4)cc3)C2)c1C(F)F (single isomer, unassigned; enantiomer 2) [Example 58, 1-(1-{4-Chloro-4′-[1-(2,2,2-trifluoroethyl)azetidin-3-yl][biphenyl]-2-yl}piperidin-3-yl)-5-(difluoromethyl)-1H-pyrazole-4-carboxylic acid hydrochloride (Enantiomer 2)]	7.50	3.0
O=C(O)c1cnn(C2CCCN(c3cc(Cl)ccc3-c3ccc(N4CCN(CC(F)(F)F)CC4)nc3)C2)c1C(F)F (single isomer, unassigned; enantiomer 2) [Example 65, 1-[1-(5-Chloro-2-{6-[4-(2,2,2-trifluoroethyl)piperazin-1-yl]pyridin-3-yl}phenyl)piperidin-3-yl]-5-(difluoromethyl)-1H-pyrazole-4-carboxylic acid hydrochloride (Enantiomer 2)]	8.16	1.0
CCN1CCN(c2ccc(-c3ccc(Cl)cc3N3CCCC(n4ncc(C(=O)O)c4C(F)F)C3)cc2)CC1 (single isomer, unassigned; enantiomer 2) [Example 4, 1-{1-[4-Chloro-4′-(4-ethylpiperazin-1-yl)[biphenyl]-2-yl]piperidin-3-yl}-5-(difluoromethyl)-1H-pyrazole-4-carboxylic acid hydrochloride (Enantiomer 2)]	7.89	1.3
NC(=O)CCN1CCN(c2ccc(-c3ccc(Cl)cc3N3CCCC(n4ncc(C(=O)O)c4C(F)F)C3)cc2)CC1 (single isomer, unassigned; enantiomer 2) [Example 47, 1-(1-{4′-[4-(3-Amino-3-oxopropyl)piperazin-1-yl]-4-chloro[biphenyl]-2-yl}piperidin-3-yl)-5-(difluoromethyl)-1H-pyrazole-4-carboxylic acid (Enantiomer 2)]	7.74	3.0
CC(C)N1CCN(c2ccc(-c3ccc(Cl)cc3N3CCCC(n4ncc(C(=O)O)c4C(F)F)C3)cc2)CC1 (single isomer, unassigned; enantiomer 2) [Example 7, 1-{1-[4-Chloro-4′-(4-isopropylpiperazin-1-yl)[biphenyl]-2-yl]piperidin-3-yl}-5-(difluoromethyl)-1H-pyrazole-4-carboxylic acid hydrochloride (Enantiomer 2)]	7.36	10.0
O=C(O)c1cnn(C2CCCN(c3cc(Cl)ccc3-c3ccc(N4CCN(CC5CC5(F)F)CC4)cc3)C2)c1C(F)F (single isomer, unassigned; diastereomer 2) [Example 29, 1-{1-[4-Chloro-4′-(4-{[2,2-difluorocyclopropyl]methyl}piperazin-1-yl)[biphenyl]-2-yl]piperidin-3-yl}-5-(difluoromethyl)-1H-pyrazole-4-carboxylic acid hydrochloride (Diastereomer 2)]	8.70	0.3
O=C(O)c1cnn(C2CCCN(c3cc(Cl)ccc3-c3ccc(N4CCN(CCC(F)(F)F)CC4)nc3)C2)c1C(F)F (single isomer, unassigned; enantiomer 1) [Example 66, 1-[1-(5-Chloro-2-{6-[4-(3,3,3-trifluoropropyl)piperazin-1-yl]pyridin-3-yl}phenyl)piperidin-3-yl]-5-(difluoromethyl)-1H-pyrazole-4-carboxylic acid hydrochloride (Enantiomer 1)]	> 9.00	<0.3
CC(C)C(=O)N1CCN(c2ccc(-c3ccc(Cl)cc3N3CCCC(n4ncc(C(=O)O)c4C(F)F)C3)cc2)CC1 (single isomer, unassigned; enantiomer 2) [Example 48, 1-{1-[4-Chloro-4′-(4-isobutyrylpiperazin-1-yl)[biphenyl]-2-yl]piperidin-3-yl}-5-(difluoromethyl)-1H-pyrazole-4-carboxylic acid (Enantiomer 2)]	8.12	3.0

Further lines, results first:

pEC50	MEC [nM]	SMILES
8.08	3.0	CC(C)CN1CCN(c2ccc(-c3ccc(Cl)cc3N3CC(n4ncc(C(=O)O)c4C(F)F)CC(F)(F)C3)cc2)CC1 (single isomer, unassigned; enantiomer 1) [Example 54, 1-{1-[4-Chloro-4′-(4-isobutylpiperazin-1-yl)[biphenyl]-2-yl]-5,5-difluoropiperidin-3-yl}-5-(difluoromethyl)-1H-pyrazole-4-carboxylic acid hydrochloride (Enantiomer 1)]
7.17	10.0	O=C(O)c1cnn(C2CCCN(c3cc(Cl)ccc3-c3ccc(N4CCN(CC5CC5)CC4)nc3)C2)c1C(F)F (single isomer, unassigned; enantiomer 2) [Example 63, 1-[1-(5-Chloro-2-{6-[4-(cyclopropylmethyl)piperazin-1-yl]pyridin-3-yl}phenyl)piperidin-3-yl]-5-(difluoromethyl)-1H-pyrazole-4-carboxylic acid hydrochloride (Enantiomer 2)]
8.39	0.3	O=C(O)c1cnn(C2CCCN(c3cc(Cl)ccc3-c3ccc(N4CCN(CC5CC5F)CC4)cc3)C2)c1C(F)F (single isomer, unassigned; diastereomer 3) [Example 33, 1-[1-[5-Chloro-2-[4-[4-[(trans-2-fluorocyclopropyl)methyl]piperazin-1-yl]phenyl]phenyl]-3-piperidyl]-5-(difluoromethyl)pyrazole-4-carboxylic acid hydrochloride (Diastereomer 3)]
7.61	3.0	O=C(O)c1cnn(C2CCCN(c3cc(Cl)ccc3-c3ccc(N4CCN(C5CC5)CC4)cc3)C2)c1C(F)F (single isomer, unassigned; enantiomer 1) [Example 8, 1-{1-[4-Chloro-4′-(4-cyclopropylpiperazin-1-yl)[biphenyl]-2-yl]piperidin-3-yl}-5-(difluoromethyl)-1H-pyrazole-4-carboxylic acid hydrochloride (Enantiomer 1)]
8.59	0.3	O=C(O)c1cnn(C2CCCN(c3cc(Cl)ccc3-c3ccc(N4CCN(CC5(F)CCC5)CC4)cc3)C2)c1C(F)F (single isomer, unassigned; enantiomer 2) [Example 16, 1-[1-(4-Chloro-4′-{4-[(1-fluorocyclobutyl)methyl]piperazin-1-yl}[biphenyl]-2-yl)piperidin-3-yl]-5-(difluoromethyl)-1H-pyrazole-4-carboxylic acid hydrochloride (Enantiomer 2)]
